Results on one substance are retold here after patent publication US20230151065A1, “MULTI-DISULFIDE-BOND LONG-CHAIN PEPTIDE WITH NEURO[…], PHARMACEUTICAL COMPOSITION AND APPLICATION” (priority 2018, published 2023).

Where no end group is shown, it is not given here.

The subject of test [1] is primary cultured SD fetal rat cortical neurons after OGD damage. Briefly: OGD damage of cortical neurons, Hoechst 33258 staining of apoptotic bodies. The settings on record: OGD 2 h, 24 h reoxygenation; ABPPk2 8, 40, 200 ng/ml, dose-dependent; BDNF 10 ng/ml. The format is cell-based. The procedure: (§1) The suspension was filtered with a 400-mesh screen, centrifuged at 1000 rpm for 5 min, and blown to form the single cell suspension. DMEM high glucose complete medium (containing 10% fetal bovine serum) was inoculated in a culture dish or culture plate pre-coated with polylysine (PLL) to culture in 5% CO2 incubator with saturated humidity at 37° C. After the cells were cultured for 4 h to adhere to the wall, the cells were cultured with neuron culture medium (neurobasal+2% B27) for 3 d to observe the growth of neurons. The culture medium containing cytarabine (the final concentration of cytarabine was 2.5 μg/ml) was substituted with half quantity to culture for 3d to inhibit the growth of glial cells and miscellaneous cells to obtain purely cultured primary cortical nerve cells. The purity of the cortical neurons was identified by immunocytochemical staining as more than 90%.
After the cortical neurons were cultured to the 7th day, the original culture medium was sucked out, and the cells were rinsed twice with sugar-free DMEM basal medium, for 5 min each time. Each OGD damage group was added with DMEM sugar-free culture medium, placed in a Billups-Rothenberg anaerobic culture chamber, filled with 95% N2/5% CO2 to balance for 15 min, and sealed for 2 h to build an OGD model. […]

For test [2] the test system is unchanged. Briefly: OGD damage of cortical neurons, mitochondrial membrane potential (JC-1, flow cytometer). In kind it is cell-based. The following applies: OGD 2 h, 24 h reoxygenation; ABPPk2 8, 40, 200 ng/ml; obvious dose-effect relationship. Here is the method: as §1, with “90%. […]” for “90%.”
(5) Effect of ABPPk2 on mitochondrial membrane potential of cortical neurons after OGD damage: cortical neurons were inoculated in a 6-well plate at 1×10^6 cells/ml; 2 ml of cell suspension was added to each well; and the cortical neurons were cultured to the 7th day. […] The mitochondrial membrane potential of the cortical neurons after OGD damage was detected by a JC-1 staining kit and a flow cytometer. […]

The subject of test [3] is PI3K/AKT signaling pathway in cortical neurons after OGD damage. Briefly: OGD damage of cortical neurons with PI3K inhibitor LY-294002, Western blot of p-AKT and Cleaved caspase-3. In kind it is cell-based, SD rat. On the technique in general: Immunoblotting shows a protein as a band on a membrane.
The subject of test [4] is primary fetal rat hippocampal neurons. Briefly: Growth of hippocampal neurons, live cell station. The format is cell-based. The settings on record: ABPPk2 100 ng/ml, observed for 48 h. Here is the method: (1) Primary culture of fetal rat hippocampal neurons: after a rat pregnant for 17 days was anesthetized, a fetal rat was taken out under sterile conditions; the brain of the fetal rat was taken out on ice; the hippocampus was carefully taken out under a dissecting microscope; and the blood vessel membranes were removed. 0.125% trypsin/EDTA was digested at 37° C. for 10 min, and the digestion was stopped by adding the DMEM complete medium containing 10% FBS. Cell debris were removed through centrifugal at 1000 rpm for 5 min; the DMEM complete medium was added to resuspend the cells; the cells were gently blown until a single cell suspension was formed; and the cells were inoculated at an appropriate density on a culture plate (dish) pre-coated with polylysine (PLL) and cultured at 37° C., 5% CO2 incubator. After 4 h, the cells were adhered to the wall; the DMEM complete medium was discarded and replaced with neurobasal medium containing different concentrations of ABPPk2 (the concentrations of ABPPk2 were 4 ng/ml, 20 ng/ml and 100 ng/ml); the neurobasal medium containing 10 ng/ml BDNF was used as the positive control group, and neurobasal was used as the negative control group.
(3) Neuron growth was observed by a live cell station: the hippocampal neuron single cell suspension obtained in (1) was inoculated on a culture plate pre-coated with PLL at a cell density of 5×10^5. […]

[5] abbreviates: after OGD and LY-294002 treatment, ABPPk2 high-dose group.
Where [6] appears, read: after OGD damage, vs OGD group, ABPPk2 at high dose, LY-294002 30 min.

For the substance “Cys-Leu-Glu-Ser-Gly-Thr-Ser-Cys-Ile-Pro-Gly-Ala-Gln-His-Asn-Cys-Cys-Ser-Gly-Val-Cys-Val-Pro-Ile-Val-Thr-Ile-Phe-Tyr-Gly-Val-Cys-Tyr (CLESGTSCIPGAQHNCCSGVCVPIVTIFYGVCY; disulfide (positions not given here); not fully specified (bridges); also: three disulfide bonds, pairing not given here) [ABPPk2, 33 amino acid polypeptide isolated from the extract of Achyranthes bidentata Blume, three pairs of disulfide bonds]”, in test [1], the “apoptotic bodies of cortical neuron nuclei” value was “the apoptotic bodies of the cortical neuron nuclei were reduced”. Moreover, the mitochondrial membrane potential entry in test [2] was “can alleviate the decline in mitochondrial membrane potential”. For the same substance, in test [3] (setting [5]), the “expression of Cleaved caspase-3” value is on record as “significantly down-regulated” and the “expression of p-AKT” value was “significantly up-regulated”. Further, in test [3] (setting [6]), the “expression of Cleaved caspase-3” value is given as “significantly down-regulated” and the “expression of p-AKT” value is reported as “significantly up-regulated”. The “growth of hippocampal neurons (live cell station)” value in test [4] was “can promote the growth of the hippocampal neurons and the extension of neurites”.
